Where two headings read alike, the source gives them in different places. Some results are limits rather than exact numbers.

The target in this test is T1, TNF-α (Homo sapiens, UniProt P01375).
T1 construct: purchased R&D 210-TA-020/CF
The test is described as follows: TNF-α Induced HEK Blue Cellular Assay (secreted alkaline phosphatase expression, QUANTI-Blue). Format: cell-based. As to conditions: HEK Blue TNFα reporter cells, TNF-α 100 μg/ml, 24 hrs at 37° C., inhibition of secreted alkaline phosphatase. The procedure, abridged: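 Compound was serially diluted from […] to 0.5 nM final, then incubated with 10,000 HEK Blue TNFα reporter cells per well and […] TNF-α for 24 h at 37° C. SEAP output was read by QUANTI-Blue absorbance at 620 nm. Inhibition was background-corrected against DMSO controls with and without stimulation, and IC50 was fitted with a 4-parameter logistic equation.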

T1 sequence (P01375 77-233 limits assumed): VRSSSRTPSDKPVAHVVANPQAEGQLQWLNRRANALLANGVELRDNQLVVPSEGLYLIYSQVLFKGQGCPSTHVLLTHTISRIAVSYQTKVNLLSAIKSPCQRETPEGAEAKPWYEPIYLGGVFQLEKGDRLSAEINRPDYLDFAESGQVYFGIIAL

Regarding `[2H]C([2H])([2H])N1C(=O)c2cccc(OC(F)F)c2[C@H]2C[C@@H]1c1nc3ccc(C#CC4CCNCC4)cc3n12` [Example 52, (7R,14R)-1-(difluoromethoxy)-6-(methyl-d3)-11-(piperidin-4-ylethynyl)-6,7-dihydro-7,14-methanobenzo[f]benzo[4,5]imidazo[1,2-a][1,4]diazocin-5(14H)-one], the IC50 (read-out: IC50 value) was less than 100 nM.

In the case of `[2H]C([2H])([2H])N1C(=O)c2cccc(OC(F)F)c2[C@H]2C[C@@H]1c1nc3ccc(C#CC4CN(C(C)C(F)F)C4)cc3n12` (stereo partly drawn) [Example 238, (7R,14R)-1-(difluoromethoxy)-11-((1-(1,1-difluoropropan-2-yl)azetidin-3-yl)ethynyl)-6-(methyl-d3)-6,7-dihydro-7,14-methanobenzo[f]benzo[4,5]imidazo[1,2-a][1,4]diazocin-5(14H)-one], under “read-out: IC50 value”, the IC50 was less than 100 nM.

`[2H]C([2H])([2H])N1C(=O)c2cccc(OC(F)F)c2[C@H]2C[C@@H]1c1nc3ccc(C#CCCNC)cc3n12` [Example 151, (7R,14R)-1-(difluoromethoxy)-6-(methyl-d3)-11-(4-(methylamino)but-1-yn-1-yl)-6,7-dihydro-7,14-methanobenzo[f]benzo[4,5]imidazo[1,2-a][1,4]diazocin-5(14H)-one]: for the setting “read-out: IC50 value”, the IC50 is 100 to 1000 nM.

In the case of `[2H]C([2H])([2H])N1C(=O)c2cccc(OC(F)F)c2[C@H]2C[C@@H]1c1nc3ccc(C#CC4CCN(C(=O)C5CC5)CC4)cc3n12` [Example 174, (7R,14R)-11-((1-(cyclopropanecarbonyl)piperidin-4-yl)ethynyl)-1-(difluoromethoxy)-6-(methyl-d3)-6,7-dihydro-7,14-methanobenzo[f]benzo[4,5]imidazo[1,2-a][1,4]diazocin-5(14H)-one], the IC50 (read-out: IC50 value) was less than 100 nM.

Regarding `[2H]C([2H])([2H])N1C(=O)c2cccc(OC(F)F)c2[C@H]2C[C@@H]1c1nc3ccc(C#Cc4nnc(NC(C)=O)s4)cc3n12` [Example 260, N-(5-(((7R,14R)-1-(difluoromethoxy)-6-(methyl-d3)-5-oxo-5,6,7,14-tetrahydro-7,14-methanobenzo[f]benzo[4,5]imidazo[1,2-a][1,4]diazocin-11-yl)ethynyl)-1,3,4-thiadiazol-2-yl)acetamide], the IC50 (read-out: IC50 value) was less than 100 nM.

On to `[2H]C([2H])([2H])N1C(=O)c2cccc(OC(F)F)c2[C@H]2C[C@@H]1c1nc3ccc(C#CC[Si](C)(C)C)cc3n12` [Example 90, (7R,14R)-1-(difluoromethoxy)-6-(methyl-d3)-11-(3-(trimethylsilyl)prop-1-yn-1-yl)-6,7-dihydro-7,14-methanobenzo[f]benzo[4,5]imidazo[1,2-a][1,4]diazocin-5(14H)-one], for which the IC50 (read-out: IC50 value) is less than 100 nM.

For `[2H]C([2H])([2H])N1C(=O)c2cccc(OC(F)F)c2[C@H]2C[C@@H]1c1nc3ccc(C#CC4CCN(C)C4)cc3n12` (stereo partly drawn) [Example 76, (7R,14R)-1-(difluoromethoxy)-6-(methyl-d3)-11-((1-methylpyrrolidin-3-yl)ethynyl)-6,7-dihydro-7,14-methanobenzo[f]benzo[4,5]imidazo[1,2-a][1,4]diazocin-5(14H)-one], where the note is “read-out: IC50 value”, the IC50 was less than 100 nM.

On to `[2H]C([2H])([2H])N1C(=O)c2cccc(OC(F)F)c2[C@H]2C[C@@H]1c1nc3ccc(C#CC4CCN(C(=O)C(C)(C)C)C4)cc3n12` (stereo partly drawn) [Example 204, (7R,14R)-1-(difluoromethoxy)-6-(methyl-d3)-11-((1-pivaloylpyrrolidin-3-yl)ethynyl)-6,7-dihydro-7,14-methanobenzo[f]benzo[4,5]imidazo[1,2-a][1,4]diazocin-5(14H)-one], for which the IC50 (read-out: IC50 value) is less than 100 nM.

Regarding `[2H]C([2H])([2H])N1C(=O)c2cccc(OC(F)F)c2[C@H]2C[C@@H]1c1nc3ccc(C#Cc4cnnn4C)cc3n12` [Example 12, (7R,14R)-1-(difluoromethoxy)-6-(methyl-d3)-11-((1-methyl-1H-1,2,3-triazol-5-yl)ethynyl)-6,7-dihydro-7,14-methanobenzo[f]benzo[4,5]imidazo[1,2-a][1,4]diazocin-5(14H)-one], the IC50 (read-out: IC50 value) is 1000 to 10000 nM.

As to `[2H]C([2H])([2H])N1C(=O)c2cccc(OC(F)F)c2[C@H]2C[C@@H]1c1nc3ccc(C#CCCC#N)cc3n12` [Example 87, 5-((7R,14R)-1-(difluoromethoxy)-6-(methyl-d3)-5-oxo-5,6,7,14-tetrahydro-7,14-methanobenzo[f]benzo[4,5]imidazo[1,2-a][1,4]diazocin-11-yl)pent-4-ynenitrile], the IC50 (read-out: IC50 value) is less than 100 nM.

For `[2H]C([2H])([2H])N1C(=O)c2cccc(OC(F)F)c2[C@H]2C[C@@H]1c1nc3ccc(C#CC4(O)CCC4)cc3n12` [Example 35, (7R,14R)-1-(difluoromethoxy)-11-((1-hydroxycyclobutyl)ethynyl)-6-(methyl-d3)-6,7-dihydro-7,14-methanobenzo[f]benzo[4,5]imidazo[1,2-a][1,4]diazocin-5(14H)-one], the IC50 (read-out: IC50 value) was in the range of 10000 to 30000 nM.

`O=C1N[C@@H]2C[C@H](c3c(OC(F)F)cccc31)n1c2nc2ccc(C#Cc3cncnc3)cc21` [Example 3, (1R,11R)-18-(difluoromethoxy)-5-[2-(pyrimidin-5-yl)ethynyl]-2,9,12-triazapentacyclo[9.8.1.0^∧{2,10}.0^∧{3,8}. 0^∧{14,19}]icosa-3(8),4,6,9,14(19),15,17-heptaen-13-one]: the IC50 (read-out: IC50 value) is less than 100 nM.

In the case of `[2H]C([2H])([2H])N1C(=O)c2cccc(OC(F)F)c2[C@H]2C[C@@H]1c1nc3ccc(C#CC4CN(S(C)(=O)=O)C4)cc3n12` [Example 121, (7R,14R)-1-(difluoromethoxy)-6-(methyl-d3)-11-((1-(methylsulfonyl)azetidin-3-yl)ethynyl)-6,7-dihydro-7,14-methanobenzo[f]benzo[4,5]imidazo[1,2-a][1,4]diazocin-5(14H)-one], the IC50 (read-out: IC50 value) was less than 100 nM.

Consider `[2H]C([2H])([2H])N1C(=O)c2cccc(OC(F)F)c2[C@H]2C[C@@H]1c1nc3ccc(C#CC4(C)CN(C(=O)C5(O)CC5)C4)cc3n12` [Example 205, (7R,14R)-1-(difluoromethoxy)-11-((1-(1-hydroxycyclopropane-1-carbonyl)-3-methylazetidin-3-yl)ethynyl)-6-(methyl-d3)-6,7-dihydro-7,14-methanobenzo[f]benzo[4,5]imidazo[1,2-a][1,4]diazocin-5(14H)-one], for which the IC50 (read-out: IC50 value) was less than 100 nM.

As to `[2H]C([2H])([2H])N1C(=O)c2cccc(OC(F)F)c2[C@H]2C[C@@H]1c1nc3ccc(C#CCCC4CC4)cc3n12` (single isomer, unassigned) [Example 137], the IC50 (read-out: IC50 value) is less than 100 nM.

Turning to `[2H]C([2H])([2H])N1C(=O)c2cccc(OC(F)F)c2[C@H]2C[C@@H]1c1nc3ccc(C#CCCN4CC(C)(O)C4)cc3n12` [Example 143, (7R,14R)-1-(difluoromethoxy)-11-(4-(3-hydroxy-3-methylazetidin-1-yl)but-1-yn-1-yl)-6-(methyl-d3)-6,7-dihydro-7,14-methanobenzo[f]benzo[4,5]imidazo[1,2-a][1,4]diazocin-5(14H)-one], where the note is “read-out: IC50 value”, the IC50 was less than 100 nM.

Regarding `[2H]C([2H])([2H])N1C(=O)c2cccc(OC(F)F)c2[C@H]2C[C@@H]1c1nc3ccc(C#C[C@H](C)COC)cc3n12` [Example 142, (7R,14R)-1-(difluoromethoxy)-11-((S)-4-methoxy-3-methylbut-1-yn-1-yl)-6-(methyl-d3)-6,7-dihydro-7,14-methanobenzo[f]benzo[4,5]imidazo[1,2-a][1,4]diazocin-5(14H)-one], the IC50 (read-out: IC50 value) was less than 100 nM.

As to `[2H]C([2H])([2H])N1C(=O)c2cccc(OC(F)F)c2[C@H]2C[C@@H]1c1nc3ccc(C#CCOC4CCN(C(=O)OC(C)(C)C)CC4)cc3n12` [Example 116, tert-butyl 4-((3-((7R,14R)-1-(difluoromethoxy)-6-(methyl-d3)-5-oxo-5,6,7,14-tetrahydro-7,14-methanobenzo[f]benzo[4,5]imidazo[1,2-a][1,4]diazocin-11-yl)prop-2-yn-1-yl)oxy)piperidine-1-carboxylate], the IC50 (read-out: IC50 value) fell in the range of 1000 to 10000 nM.

For `[2H]C([2H])([2H])N1C(=O)c2cccc(OC(F)F)c2[C@H]2C[C@@H]1c1nc3ccc(C#CCC(C)OC)cc3n12` (single isomer, unassigned) [Example 149, (7R,14R)-1-(difluoromethoxy)-11-((S or R)-4-methoxypent-1-yn-1-yl)-6-(methyl-d3)-6,7-dihydro-7,14-methanobenzo[f]benzo[4,5]imidazo[1,2-a][1,4]diazocin-5(14H)-one], the IC50 (read-out: IC50 value) is less than 100 nM.

In the case of `[2H]C([2H])([2H])N1C(=O)c2cccc(OC(F)F)c2[C@H]2C[C@@H]1c1nc3ccc(C#CCCN4CCC4)cc3n12` [Example 135, (7R,14R)-11-(4-(azetidin-1-yl)but-1-yn-1-yl)-1-(difluoromethoxy)-6-(methyl-d3)-6,7-dihydro-7,14-methanobenzo[f]benzo[4,5]imidazo[1,2-a][1,4]diazocin-5(14H)-one], the IC50 (IC50 value) is less than 100 nM.

As for `[2H]C([2H])([2H])N1C(=O)c2cccc(OC(F)F)c2[C@H]2C[C@@H]1c1nc3ccc(C#C[C@H]4CCCN4)cc3n12` [Example 58, (7R,14R)-1-(difluoromethoxy)-6-(methyl-d3)-11-(((R)-pyrrolidin-2-yl)ethynyl)-6,7-dihydro-7,14-methanobenzo[f]benzo[4,5]imidazo[1,2-a][1,4]diazocin-5(14H)-one], the IC50 (read-out: IC50 value) fell in the range of 10000 to 30000 nM.

For `[2H]C([2H])([2H])N1C(=O)c2cccc(OC(F)F)c2[C@H]2C[C@@H]1c1nc3ccc(C#CC)cc3n12` [Example 39, (7R,14R)-1-(difluoromethoxy)-6-(methyl-d3)-11-(prop-1-yn-1-yl)-6,7-dihydro-7,14-methanobenzo[f]benzo[4,5]imidazo[1,2-a][1,4]diazocin-5(14H)-one], where the note is “read-out: IC50 value”, the 50% inhibitory concentration (IC50) was less than 100 nM.

(Values after patent US20260365682A1, “MODULATORS OF TNF-ALPHA ACTIVITY” (Forward Therapeutics, Inc., priority 2022, published 2026).)
